According to patent publication US8193237B2, “Indole derivative having IκB kinase β inhibitory activity” (Santen Pharmaceutical Co., Ltd., priority 2007, dated 2012):

The molecules below were run against T1, IKKβ (Homo sapiens, UniProt O14920) (assay: IKKβ inhibition assay by fluorescence polarization (IMAP kit)). Conditions: test compound at 1 μM; inhibition rate exceeding 100% is indicated as 100%.
T1 construct: purchased Upstate Biotechnology Inc. 14-485
T1 sequence (O14920 1-756): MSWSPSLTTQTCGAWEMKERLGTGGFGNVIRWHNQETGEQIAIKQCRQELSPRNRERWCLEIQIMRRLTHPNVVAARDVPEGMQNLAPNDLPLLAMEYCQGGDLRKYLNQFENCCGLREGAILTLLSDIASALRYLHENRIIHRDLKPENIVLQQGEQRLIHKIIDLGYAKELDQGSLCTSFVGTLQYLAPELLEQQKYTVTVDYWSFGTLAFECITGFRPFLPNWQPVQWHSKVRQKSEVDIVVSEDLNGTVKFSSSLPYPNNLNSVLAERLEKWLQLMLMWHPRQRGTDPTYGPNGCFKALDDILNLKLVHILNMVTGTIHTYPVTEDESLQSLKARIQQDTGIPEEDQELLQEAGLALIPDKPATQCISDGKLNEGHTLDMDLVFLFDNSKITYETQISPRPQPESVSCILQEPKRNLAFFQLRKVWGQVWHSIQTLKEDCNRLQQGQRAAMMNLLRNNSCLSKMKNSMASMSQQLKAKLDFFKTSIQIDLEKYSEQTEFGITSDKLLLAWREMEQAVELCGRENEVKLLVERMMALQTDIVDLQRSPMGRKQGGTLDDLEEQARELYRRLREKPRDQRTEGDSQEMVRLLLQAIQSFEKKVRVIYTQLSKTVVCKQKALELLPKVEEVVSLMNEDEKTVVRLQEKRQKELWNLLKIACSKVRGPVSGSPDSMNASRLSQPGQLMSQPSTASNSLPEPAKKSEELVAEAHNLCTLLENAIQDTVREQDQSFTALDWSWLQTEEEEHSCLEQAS
Assay type: biochemical
Method: In order to evaluate IKKβ inhibitory activity of the present compounds, an IKKβ inhibition assay by the fluorescence polarization method was conducted.
The assay was conducted using IMAP™ IKKβ assay kit (manufactured by Molecular Devices Corporation, catalogue No. R8115) or IMAP™ FP Screening Express kit (manufactured by Molecular Devices Corporation, catalogue No. R8127) and in accordance with the protocol attached to each kit. The specific methods are described below. (Preparation of Reagents)
1) Complete Reaction Buffer: a complete reaction buffer was so prepared as to obtain a final concentration of 10 mM Tris-HCL (pH 7.2), 10 mM magnesium chloride, 0.1% bovine serum albumin, and 1 mM dithiothreitol.
2) Substrate Working Solution: 400 nM of a substrate working solution was prepared by dissolving and diluting a fluorescein-labeled IKKβ substrate peptide (amino acid sequence: GRHDSGLDSMK) with the complete reaction buffer.
3) Enzyme Working Solution: 0.2 units/mL of an enzyme working solution was prepared by diluting IKKβ solution (manufactured by Upstate Biotechnology Inc., catalogue No. 14-485) with the complete reaction buffer.
4) ATP Working Solution: 8 μM of an ATP working solution was prepared by dissolving ATP into ultrapure water followed by diluting it with the complete reaction buffer.
5) IMAP binding solution: After diluting an IMAP binding buffer with ultrapure water, an IMAP binding solution was prepared by diluting an IMAP binding reagent with the diluted IMAP binding buffer.
A test compound was dissolved in dimethylsulfoxide followed by diluting it with the complete reaction buffer to prepare 4 μM of a test compound solution.
1) To a 384-well plate, the test compound solution, the enzyme working solution, the substrate working solution, and the ATP working solution were added in an amount of 5 μL per well.
2) Incubation was performed at a room temperature for 60 minutes under light shielding.
3) The IMAP binding solution was added in an amount of 60 μL per well.
4) Incubation was performed at a room temperature for 30 minutes under light shielding.
5) Fluorescence polarization value of each well was measured by using Analyst™ HT (multimode plate reader manufactured by Molecular Devices Corporation) and Criterion Host Software v2.00 (manufactured by Molecular Devices Corporation).
6) Operations were performed in the same manner as in 1) to 5) except for changing the test compound to 0.4% dimethylsulfoxide. The obtained result was designated as a control.
7) Operations were performed in the same manner as in 1) to 5) except for changing the test compound and the enzyme working solution to 0.4% dimethylsulfoxide and the complete reaction buffer, respectively. The obtained result was designated as a background.
An IKKβ inhibition rate (%) was calculated by the following equation.
IKKβ inhibition rate (%)=100×{1−(fluorescence polarization value of test compound−fluorescence polarization value of background)/(fluorescence polarization value of control−fluorescence polarization value of background)}

Compound | inhibition at 1 µM [%]
N#Cc1cccc(-c2ccc3c(C(N)=O)c(NC(N)=O)[nH]c3c2)c1 [Compound 4-15, 2-Aminocarbonylamino-6-(3-cyanophenyl)indole-3-carboxamide] | 100
NC(=O)Nc1[nH]c2cc(-c3cccc([N+](=O)[O-])c3)ccc2c1C(N)=O [Compound 4-16, 2-Aminocarbonylamino-6-(3-nitrophenyl)indole-3-carboxamide] | 100
CS(=O)(=O)Nc1cccc(-c2ccc3c(C(N)=O)c(NC(N)=O)[nH]c3c2)c1 [Compound 4-17, 2-Aminocarbonylamino-6-(3-methylsulfonylaminophenyl)indole-3-carboxamide] | 100
NC(=O)Nc1[nH]c2cc(-c3ccsc3)ccc2c1C(N)=O [Compound 4-18, 2-Aminocarbonylamino-6-(thiophen-3-yl)indole-3-carboxamide] | 98
NC(=O)Nc1[nH]c2cc(-c3ccco3)ccc2c1C(N)=O [Compound 4-19, 2-Aminocarbonylamino-6-(furan-2-yl)indole-3-carboxamide] | 100
NC(=O)Nc1[nH]c2cc(-c3ccoc3)ccc2c1C(N)=O [Compound 4-22, 2-Aminocarbonylamino-6-(furan-3-yl)indole-3-carboxamide] | 100
NC(=O)Nc1[nH]c2cc(-c3ccsc3Cl)ccc2c1C(N)=O [Compound 4-23, 2-Aminocarbonylamino-6-(2-chlorothiophen-3-yl)indole-3-carboxamide] | 100
NC(=O)Nc1[nH]c2cc(-c3cnc4ccccc4c3)ccc2c1C(N)=O [Compound 4-36, 2-Aminocarbonylamino-6-(quinolin-3-yl)indole-3-carboxamide] | 99
C=Cc1ccc2c(C(N)=O)c(NC(N)=O)[nH]c2c1 [Compound 4-38, 2-Aminocarbonylamino-6-vinylindole-3-carboxamide] | 100
COC/C=C/c1ccc2c(C(N)=O)c(NC(N)=O)[nH]c2c1 [Compound 4-58, 2-Aminocarbonylamino-6-[(E)-3-methoxy-1-propenyl]indole-3-carboxamide] | 99
NC(=O)Nc1[nH]c2cc(-c3ccc4[nH]ccc4c3)ccc2c1C(N)=O [Compound 4-65, 2-Aminocarbonylamino-6-(indol-5-yl)indole-3-carboxamide] | 100
CCC/C=C/c1ccc2c(C(N)=O)c(NC(N)=O)[nH]c2c1 [Compound 4-67, 2-Aminocarbonylamino-6-[(E)-1-pentenyl]indole-3-carboxamide] | 94
CN(C)c1ccc(-c2ccc3c(C(N)=O)c(NC(N)=O)[nH]c3c2)cc1 [Compound 4-78, 2-Aminocarbonylamino-6-(4-dimethylaminophenyl)indole-3-carboxamide] | 95
Cc1c(-c2ccoc2)ccc2c(C(N)=O)c(NC(N)=O)[nH]c12 [Compound 4-81, 2-Aminocarbonylamino-6-(furan-3-yl)-7-methylindole-3-carboxamide] | 96
NC(=O)Nc1[nH]c2cc(-c3ccc[nH]3)ccc2c1C(N)=O [Compound 5-1, 2-Aminocarbonylamino-6-(pyrrol-2-yl)indole-3-carboxamide] | 95

Further lines, results first:

inhibition at 1 µM [%] | Compound
97 | NC(=O)Nc1[nH]c2cc(-c3cccc(CCO)c3)ccc2c1C(N)=O [Compound 7-5]
98 | NC(=O)Nc1[nH]c2cc(-c3ccncc3)ccc2c1C(N)=O [Compound 7-9]
100 | COc1cc(-c2ccc3c(C(N)=O)c(NC(N)=O)[nH]c3c2)ccc1CO [Compound 7-14]
98 | NC(=O)Nc1[nH]c2cc(-c3ccnc(Cl)c3)ccc2c1C(N)=O [Compound 7-26]
100 | C[C@@H](O)c1cccc(-c2ccc3c(C(N)=O)c(NC(N)=O)[nH]c3c2)c1 [Compound 7-44]
98 | C[C@H](O)c1cccc(-c2ccc3c(C(N)=O)c(NC(N)=O)[nH]c3c2)c1 [Compound 7-45]
100 | NCc1ccc(-c2ccc3c(C(N)=O)c(NC(N)=O)[nH]c3c2)cc1 [Compound 8-3]
100 | CC(N)c1ccc(-c2ccc3c(C(N)=O)c(NC(N)=O)[nH]c3c2)cc1 (stereo not shown) [Compound 8-5]
99 | CC(C)(N)c1ccc(-c2ccc3c(C(N)=O)c(NC(N)=O)[nH]c3c2)cc1 [Compound 8-6]
87 | NC(=O)Nc1[nH]c2cc(C#Cc3ccccc3)ccc2c1C(N)=O [Compound 9-1, 2-Aminocarbonylamino-6-phenylethynylindole-3-carboxamide]
95 | NC(=O)Nc1[nH]c2cc(C#CCO)ccc2c1C(N)=O [Compound 9-2, 2-Aminocarbonylamino-6-(3-hydroxy-1-propynyl) indole-3-carboxamide]
94 | CN(C)CC#Cc1ccc2c(C(N)=O)c(NC(N)=O)[nH]c2c1 [Compound 9-18, 2-Aminocarbonylamino-6-(3-dimethylamino-1-propynyl) indole-3-carboxamide]
100 | C#Cc1ccc2c(C(N)=O)c(NC(N)=O)[nH]c2c1 [Compound 10-1, 2-aminocarbonylamino-6-ethynylindole-3-carboxamide]
95 | CCc1ccc2c(C(N)=O)c(NC(N)=O)[nH]c2c1 [Compound 11-1, 2-Aminocarbonylamino-6-ethylindole-3-carboxamide]
100 | NC(=O)Nc1[nH]c2cc(C3CCCCC3)ccc2c1C(N)=O [Compound 11-4, 2-Aminocarbonylamino-6-cyclohexylindole-3-carboxamide]
98 | NC(=O)Nc1[nH]c2cc(CCCCO)ccc2c1C(N)=O [Compound 11-6, 2-Aminocarbonylamino-6-(4-hydroxybutyl)indole-3-carboxamide]
95 | CN(C)CCCc1ccc2c(C(N)=O)c(NC(N)=O)[nH]c2c1 [Compound 11-8, 2-Aminocarbonylamino-6-(3-dimethylaminopropyl) indole-3-carboxamide]
94 | COCCCc1ccc2c(C(N)=O)c(NC(N)=O)[nH]c2c1 [Compound 11-10, 2-Aminocarbonylamino-6-(3-methoxypropyl)indole-3-carboxamide]
100 | NC(=O)Nc1[nH]c2cc(-c3cccc(CO)c3)ccc2c1C(N)=O [Compound 12-1, 2-aminocarbonylamino-6-(3-hydroxymethylphenyl)indole-3-carboxamide]
99 | NC(=O)Nc1[nH]c2cc(-c3ccc(CO)o3)ccc2c1C(N)=O [Compound 12-2, 2-Aminocarbonylamino-6-(5-hydroxymethylfuran-2-yl) indole-3-carboxamide]
100 | CC(C)NCc1cccc(-c2ccc3c(C(N)=O)c(NC(N)=O)[nH]c3c2)c1 [Compound 13-5, 2-Aminocarbonylamino-6-(3-isopropylaminomethylphenyl) indole-3-carboxamide]
100 | NC(=O)Nc1[nH]c2cc(-c3cccc(CNCCO)c3)ccc2c1C(N)=O [Compound 13-13, 2-Aminocarbonylamino-6-[3-(2-hydroxyethylaminomethyl)phenyl]indole-3-carboxamide]
